Test results reported in patent US20100203647A1, “Chemical Reporters of Protein Acylation” (THE ROCKEFELLER UNIVERSITY, priority 2008, published 2010).
“Also recorded” adds a separate entry of the source. Each block holds one molecule with its values, some of them ahead of it.

Experiments:
Lck = assay: Pulse-chase tandem imaging of palmitate turnover on Lck in Jurkat T cells; type: cell-based, human; conditions: for effect of chemical inhibitor on palmitate turnover on Lck: added during the chase, 20 μM MAFP, 100 μM 2BP
Jurkat cells [1] = assay: Metabolic labeling with inhibitors
p300 = target: T1, p300 (Homo sapiens, UniProt Q09472); assay: MALDI-TOF analysis of p300-catalyzed acylation of histone H3 peptide in vitro; type: biochemical; conditions: 20 μM analog, MS analysis
T1 construct: made in house; host or cells: SF9 insect cells, baculovirus
Protocol: Cells were lysed in lysis buffer (20 mM Tris, pH 7.5, 500 mM NaCl, 4 mM MgCl2, 0.4 mM EDTA, 20% glycerol, 2 mM DTT, and supplemented with protease inhibitors). Clarified cell lysates were diluted to 300 mM NaCl, and NP-40 was added to 0.1% final concentration. Flag M2 agarose resin (Sigma) was added to the lysate and incubated for 4 hours at 4° C. […] Protein concentration and purity were estimated by comparison to BSA standards on SDS gels stained with Gelcode Blue stain (Pierce).

Jurkat T cells [2] = assay: Metabolic labeling of Jurkat T cells with alkynyl-acetate analogs, CuAAC with az-Rho, in-gel fluorescence scanning; conditions: metabolically-labeled Jurkat T cells
Jurkat T cells [3] = assay: Proteomic analysis and modification site mapping of alkynyl-acetate analog-labeled proteins; type: cell-based, human; conditions: for qualitative comparison among alkynyl-acetate analogs as chemical reporter for protein acetylation: proteomics data and in vitro p300-acylation studies
M. smegmatis = assay: Labeling of acylated proteins in bacterial cells with alkynyl-chemical reporters; type: cell-based
[4] = tested on: acetylated proteins such as histones; assay: Metabolic labeling of acetylated proteins with very short chain alkynyl-chemical reporters, in-gel fluorescence; type: cell-based, human
[5] = Absorbance and fluorescence studies of clickable CyFur dyes; type: physicochemical; conditions: for εmax^b (M^−1cm^−1): in MeOH, at 470 nm for az-CyFur-1, az-CyFur-2 and at 580 nm for alk-CyFur, averaged over three independent experiments; for ΦF^c: quantum yield referenced against cresyl violet, alk-CyFur excited at 580 nm, az-CyFur-1 and az-CyFur-2 at 470 nm; for λmax^a (nm) (first column) / λmax^a (nm) (second column): spectra obtained in DMSO
Protocol: Absorbance and fluorescence studies. Absorption spectra and fluorescence data were collected on SpectraMax M2 multi-detection reader (Molecular Devices). The spectra in solution were obtained at 25° C. using a quartz cuvette with a path length of 1 cm. Fluorescence quantum yields (ΦF) of CyFur dyes were determined against cresyl violet (ΦF=0.54 in methanol).

Jurkat T cell lysates = assay: Streptavidin affinity enrichment and Na2S2O4 elution of azido-chemical reporter labeled Jurkat T cell lysates reacted with alk-diazo-biotin; type: cell-based, human; conditions: Coomassie staining of polypeptides eluted from streptavidin beads
Jurkat cells [6] = assay: Competition of metabolic labeling with naturally occurring fatty acids; conditions: 2 hours, myristic acid 0, 10 or 100 μM, palmitic acid 0, 100 or 200 μM

T1 sequence (Q09472 whole entry): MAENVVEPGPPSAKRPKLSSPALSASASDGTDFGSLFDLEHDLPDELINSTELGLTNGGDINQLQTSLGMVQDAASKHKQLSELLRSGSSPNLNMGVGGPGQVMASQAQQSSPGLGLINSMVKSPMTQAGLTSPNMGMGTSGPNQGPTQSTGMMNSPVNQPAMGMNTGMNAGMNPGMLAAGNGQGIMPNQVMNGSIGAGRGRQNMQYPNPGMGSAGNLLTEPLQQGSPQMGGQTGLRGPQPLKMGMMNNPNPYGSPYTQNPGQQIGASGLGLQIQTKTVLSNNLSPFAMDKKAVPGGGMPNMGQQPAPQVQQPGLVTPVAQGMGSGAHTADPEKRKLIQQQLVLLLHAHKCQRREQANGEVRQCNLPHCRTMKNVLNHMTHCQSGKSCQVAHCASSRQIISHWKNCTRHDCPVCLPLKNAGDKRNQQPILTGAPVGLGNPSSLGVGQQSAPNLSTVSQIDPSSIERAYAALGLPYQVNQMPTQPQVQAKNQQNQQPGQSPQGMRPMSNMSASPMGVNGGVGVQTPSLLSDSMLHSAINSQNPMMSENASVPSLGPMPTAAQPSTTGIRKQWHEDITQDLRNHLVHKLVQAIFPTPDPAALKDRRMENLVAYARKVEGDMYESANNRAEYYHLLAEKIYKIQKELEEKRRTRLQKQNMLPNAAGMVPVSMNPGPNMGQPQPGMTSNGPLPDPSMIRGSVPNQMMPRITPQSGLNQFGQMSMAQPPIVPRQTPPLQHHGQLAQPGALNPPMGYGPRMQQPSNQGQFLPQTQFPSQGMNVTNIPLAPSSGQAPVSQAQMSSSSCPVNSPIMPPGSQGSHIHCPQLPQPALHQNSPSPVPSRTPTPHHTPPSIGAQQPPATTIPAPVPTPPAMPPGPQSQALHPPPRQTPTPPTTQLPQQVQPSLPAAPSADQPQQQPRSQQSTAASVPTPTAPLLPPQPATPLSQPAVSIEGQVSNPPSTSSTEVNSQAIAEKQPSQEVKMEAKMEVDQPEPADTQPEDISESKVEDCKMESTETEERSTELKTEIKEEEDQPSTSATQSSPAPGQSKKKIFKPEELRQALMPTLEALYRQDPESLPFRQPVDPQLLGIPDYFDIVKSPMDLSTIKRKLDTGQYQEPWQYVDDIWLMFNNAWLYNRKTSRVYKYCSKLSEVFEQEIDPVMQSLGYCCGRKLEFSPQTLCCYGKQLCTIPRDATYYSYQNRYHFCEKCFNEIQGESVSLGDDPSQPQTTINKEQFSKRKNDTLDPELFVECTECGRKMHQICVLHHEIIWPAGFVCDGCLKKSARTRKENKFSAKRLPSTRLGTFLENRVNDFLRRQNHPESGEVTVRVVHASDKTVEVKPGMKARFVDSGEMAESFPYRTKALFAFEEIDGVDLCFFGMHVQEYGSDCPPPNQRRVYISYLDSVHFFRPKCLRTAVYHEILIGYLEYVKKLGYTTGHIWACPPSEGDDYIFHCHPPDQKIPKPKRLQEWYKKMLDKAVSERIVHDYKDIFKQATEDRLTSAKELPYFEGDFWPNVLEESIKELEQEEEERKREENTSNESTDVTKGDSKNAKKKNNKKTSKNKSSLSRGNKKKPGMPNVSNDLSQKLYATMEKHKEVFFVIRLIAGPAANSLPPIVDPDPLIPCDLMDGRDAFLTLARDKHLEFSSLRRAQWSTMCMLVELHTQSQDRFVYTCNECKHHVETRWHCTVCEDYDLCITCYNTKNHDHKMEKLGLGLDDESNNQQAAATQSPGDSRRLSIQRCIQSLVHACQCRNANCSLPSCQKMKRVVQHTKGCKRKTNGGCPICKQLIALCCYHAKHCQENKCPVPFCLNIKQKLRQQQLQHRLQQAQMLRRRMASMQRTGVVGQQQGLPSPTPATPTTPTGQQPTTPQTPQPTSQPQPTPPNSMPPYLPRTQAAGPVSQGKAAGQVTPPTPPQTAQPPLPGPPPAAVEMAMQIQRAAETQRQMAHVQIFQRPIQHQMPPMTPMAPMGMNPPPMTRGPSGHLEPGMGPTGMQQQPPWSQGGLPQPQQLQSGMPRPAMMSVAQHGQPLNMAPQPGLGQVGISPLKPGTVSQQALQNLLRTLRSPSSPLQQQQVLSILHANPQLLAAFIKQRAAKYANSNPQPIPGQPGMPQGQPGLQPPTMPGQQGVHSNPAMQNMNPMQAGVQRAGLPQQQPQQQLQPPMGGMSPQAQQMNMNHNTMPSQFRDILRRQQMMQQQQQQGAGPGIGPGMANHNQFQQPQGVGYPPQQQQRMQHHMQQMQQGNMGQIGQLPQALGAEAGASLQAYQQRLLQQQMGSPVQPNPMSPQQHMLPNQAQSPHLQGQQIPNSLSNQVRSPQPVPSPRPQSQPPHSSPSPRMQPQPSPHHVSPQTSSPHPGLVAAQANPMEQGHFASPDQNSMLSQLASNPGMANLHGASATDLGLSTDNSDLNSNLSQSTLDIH

SMILES: CCCCCCCCCCCCCCC(Br)C(=O)O (stereo not drawn) [2-BP, 2-bromopalmitate, reference compound]
effect of chemical inhibitor on palmitate turnover on Lck (Lck): decreased Lck depalmitoylation rate
effect of inhibitor on alkynyl-fatty acid protein labeling (alk-12, alk-14, alk-16, 20 μM) (Jurkat cells [1]; Jurkat cells, CHX 10 μM, HMA 1 mM, 2-BP 50 μM, 30 minutes pre-incubation): reduced protein labeling with alk-12, alk-14 and alk-16

SMILES: C#CCCSCCNC(=O)CCNC(=O)[C@H](O)C(C)(C)COP(=O)(O)OP(=O)(O)OC[C@H]1O[C@@H](n2cnc3c(N)ncnc32)[C@H](O)[C@@H]1OP(=O)(O)O [Analog 1, 3-butynyl-CoA]
utilization as acyl-CoA donor for p300-catalyzed acylation of histone H3 peptide (p300): does not appear to be utilized efficiently by p300
utilization as acyl-CoA donor for p300-catalyzed acylation of histone H3 peptide (p300; listed as 3-butynyl-CoA): not efficiently utilized by p300 in vitro

SMILES: C#CCC(=O)[O-].[Na+] [Analog 4, sodium 3-butynoate]
labeling of known lysine-acetylated proteins (enriched core histones, immunoprecipitated histone H3) (Jurkat T cells [2]): specifically labeled

SMILES: C#CCCC(=O)[O-].[Na+] [Analog 5, sodium 4-pentynoate]
sites of metabolic incorporation (MS/MS of enriched peptides) (Jurkat T cells [3]; Jurkat T cell lysates): metabolically incorporated into known sites of lysine acetylation on histone H2B, H3 and H4
labeled proteins also identified by anti-acetyl-Lys proteomic studies (Jurkat T cells [3]; Jurkat T cells): 86%
number of labeled proteins identified (Jurkat T cells [3]; Jurkat T cells, three independent experiments): approximately 194
qualitative comparison among alkynyl-acetate analogs as chemical reporter for protein acetylation (Jurkat T cells [3]): optimal chemical reporter for detecting protein acetylation
labeling of known lysine-acetylated proteins (enriched core histones, immunoprecipitated histone H3) (Jurkat T cells [2]): specifically labeled

SMILES: C#CCCCC(=O)[O-].[Na+] [Analog 6, sodium 5-hexynoate]
qualitative comparison among alkynyl-acetate analogs as chemical reporter for protein acetylation (Jurkat T cells [3]): may also target cellular fatty-acylated proteins
labeling of known lysine-acetylated proteins (enriched core histones, immunoprecipitated histone H3) (Jurkat T cells [2]): specifically labeled

SMILES: O=S(=O)(F)Cc1ccccc1 [PMSF, phenylmethylsulfonyl fluoride, reference compound]
effect of chemical inhibitor on palmitate turnover on Lck (Lck): no apparent effect on the initial rate of palmitate removal

SMILES: C#CCC(=O)O [alk-2, buta-3-ynoic acid]
labeling of proteins in bacterial cells (M. smegmatis): labeled distinct proteins
labeling of acetylated proteins [4]: found to label acetylated proteins such as histones

SMILES: C#CCCCC(=O)O [alk-4, hexa-5-ynoic acid]
labeling of proteins in bacterial cells (M. smegmatis): labeled distinct proteins
labeling of acetylated proteins [4]: found to label acetylated proteins such as histones
relative efficiency of labeling acetylated proteins among alk-2, alk-3, alk-4 [4]: most efficient labeling of acetylated proteins; also recorded: more efficient

SMILES: C#CCCCCCCCCCCCCCC(=O)O [alk-14, Hexadec-15-ynoic acid]
class of acylated proteins targeted by the reporter (Jurkat cells [1]; from CHX and NH2OH sensitivity in Jurkat cell lysates): appears to represent a combination of alk-12 and alk-16 labeling

absorption (abs) maxima [5]: 580 nm
emission (em) maxima [5]: 640 nm
εmax^b (M^−1cm^−1) [5]: 33,933 M^−1cm^−1
ΦF^c [5]: 0.0147
λmax^a (nm) (first column) [5]: 580 nm
λmax^a (nm) (second column) [5]: 640 nm
SMILES: C#CCCNc1ccc(/C=C/C2=C(C#N)C(=C(C#N)C#N)OC2(C)C)cc1 [alk-CyFur, (E)-2-(4-(4-(but-3-ynylamino)styryl)-3-cyano-5,5-dimethylfuran-2(5H)-ylidene)malononitrile]

SMILES: [N-]=[N+]=NCCCCCCCCCCCC(=O)O [az-12, 12-azido-dodecanoic acid]
decay of reporter signal on Lck with excess myristate as the chase additive (Lck; over 6 hours): No significant decay
proteins recovered from labeled cell lysates compared to control (-) (Jurkat T cell lysates): significantly greater amounts of proteins recovered

SMILES: [N-]=[N+]=NCCCCCCCCCCCCCCC(=O)O [az-15, 15-azido-pentadecanoic acid]
proteins recovered from labeled cell lysates compared to control (-) (Jurkat T cell lysates): significantly greater amounts of proteins recovered

absorption (abs) maxima [5]: 470 nm
emission (em) maxima [5]: 580 nm
εmax^b (M^−1cm^−1) [5]: 20,533 M^−1cm^−1
ΦF^c [5]: 0.0067
λmax^a (nm) (first column) [5]: 470 nm
λmax^a (nm) (second column) [5]: 580 nm
SMILES: CC1(C)OC(=C(C#N)C#N)C(C#N)=C1/C=C/c1ccc(NC(=O)OCCN=[N+]=[N-])cc1 [az-CyFur-1]

SMILES: CCCCCCCCCCCCCC(=O)O [myristic acid]
competition of alkynyl-fatty acid protein labeling (alk-12, alk-14, alk-16, 10 μM) (Jurkat cells [6]): alk-12 protein labeling is selectively blocked

SMILES: CCCCCCCCCCCCCCCC(=O)O [palmitic acid]
competition of alkynyl-fatty acid protein labeling (alk-12, alk-14, alk-16, 10 μM) (Jurkat cells [6]): alk-14 and alk-16 protein labeling is most effectively reduced
